From US8178530B2, “Imidazolopyrazine compounds useful for the treatment of degenerative and inflammatory diseases” (Janssen Pharmaceutica NV, priority 2006, dated 2012)
Like-named read-outs stand apart in the source and are kept apart here.

Tested on: TNFα release by human PBMCs
Experiment: Cytokine release by LPS-stimulated human PBMCs (TNFα ELISA)
Type: cell-based
Conditions: LPS 1 μg/mL, 24 hr
Description: Human peripheral blood mononuclear cells (PBMCs) are isolated from “buffy coats” prepared from the blood of healthy volunteers, isolated essentially according to method of Bøyum (1984). In brief, buffy coat is diluted 1:1 with 1×PBS (Gibco) and 30 mL is carefully put on top of 20 mL Lymphoprep™ (Lucron Bioproducts) in 50 mL Falcon tubes. After centrifugation (35 min, 400 g, 18° C.) the mononuclear cells are collected from the white interphase and washed 3 times with 1×PBS by resuspending and centrifugation (10 min, 200 g). Isolated PBMCs are finally resuspended in RPMI 1640 (Cat. No. 21875, Gibco) that is supplemented with 10% heat-inactivated FBS (Hyclone).
For the assay PBMCs are seeded at 2.5E6 cells/mL in 160 μL in 96-well plates (Nunc). Serial dilution of the test compounds are made first in DMSO (Sigma) and then diluted 50-fold in M199 medium (Gibco) containing 1% heat-inactivated FBS. Compounds are further 1/10 diluted in the assay plates to obtain final DMSO concentration of 0.2%. Cells are preincubated with the compounds for 1 hr at 37° C., 5% CO2. Then, cells are stimulated with LPS (Escherichia coli serotype 026:B6, Cat. No. L2654, Sigma) that is added in a volume of 20 μL to a final concentration of 1 μg/mL and cells are further cultured for 24 hr. The plates are centrifuged and the supernatant is collected and stored at −80° C. until analysis of appropriate dilutions in ELISAs.
The following 384-well chemiluminescent ELISA protocol was developed to measure TNFα levels in the supernatant: White Lumitrac 600 384-well plates (Greiner) are coated with (40 μL/well) anti-TNFα capture antibody (Cat. No. 551220, BD Pharmingen) that is diluted to 1 μg/mL in 1×PBS (Gibco). After overnight incubation at 4° C., plates are washed with 1×PBS (80 g NaCl, 2 g KCl (Sigma), 11.5 g Na2HPO4.7H2O and 2 g KH2PO4 in 10 L milliQ; pH 7.4) and blocked with 100 μL/well buffer B (1×PBS containing 1% BSA (Sigma), 5% sucrose (Sigma) and 0.05% NaN3 (Sigma)). After 4 hr incubation at RT, blocking buffer is removed and plates are washed once with PBST (1×PBS with 0.05% Tween-20 (Sigma)). Then, 40 μL of sample is transferred to the ELISA plates and plates are incubated at 4° C. Next day, plates are washed 3 times (twice with PBST and once with PBS) and 35 μL/well biotinylated anti-TNFα antibody (Cat. No. 554511, BD Pharmingen) diluted first to a concentration of 250 ng/ml in buffer D (1×PBS with 1% BSA) is added. After 2 h of incubation at RT, plates are washed as described above and 35 μL/well of a 1/2000 dilution of streptavidin-HRP conjugate (Cat. No. SNN2004, Biosource) in buffer D is added. After 45 min, plates are washed as described above and incubated for 5 min with 50 μL/well BM Chemiluminescence ELISA Substrate POD (Roche). Readout is performed on the Luminoscan Ascent Luminometer (Labsystems) with an integration time of 100 msec delivering raw data (RLU: relative luminescence units). The following controls are included in the experiments, a maximal signal control, in which the cells are activated by LPS but only the 0.2% DMSO vehicle (and thus no compound) is added. This control indicates the maximal level of TNFα that can be achieved in the test. A minimal signal control is also included in these experiments. Here, cells are not triggered. This control returns the basal TNFα levels produced by the PBMCs. The percent inhibition (PIN) of the TNFα release, achieved by the compounds is then calculated based on the RLU data returned by the ELISA with following formula: 100−[((TNFα level compound X at concentration Y−minimal TNFα levels)/(maximal TNFα levels−minimal TNFα levels))×100]. Where compounds are tested at 8 concentrations (1/3 serial dilution), EC50-values can be calculated by curve fitting of the means of the PIN data achieved for a compound at each test concentration. […]

| Compound | EC50 (read-out: PBMC EC50) [nM] | EC50 (PBMC) [nM] |
| --- | --- | --- |
| 4-(8-{4-[1-(2,2,2-Trifluoroethyl)piperidin-4-yl]phenylamino}imidazo[1,2-a]pyrazin-5-yl)thiophene-2-carboxylic acid amide [Compound 192] | > 1000 | – |
| NC(=O)c1ccc(Nc2ncc(-c3cn[nH]c3)n3ccnc23)cc1 [Compound 11] | – | > 1000 |
| CN1CCN(c2ccc(Nc3ncc(-c4cn[nH]c4)n4ccnc34)cc2)CC1 [Compound 14] | – | > 1000 |
| CCN(CC)CCNC(=O)c1ccc(Nc2ncc(-c3cn[nH]c3)n3ccnc23)cc1 [Compound 32, N-(2-Diethylamino-ethyl)-4-[5-(1H-pyrazol-4-yl)-imidazo[1,2-a]pyrazin-8-ylamino]-benzamide] | – | > 1000 |
| O=C(NCc1cccnc1)c1ccc(Nc2ncc(-c3cn[nH]c3)n3ccnc23)cc1 [Compound 35] | – | 501 to 1000 |
| NS(=O)(=O)c1ccc(Nc2ncc(-c3cn[nH]c3)n3ccnc23)cc1 [Compound 36] | – | > 1000 |
| O=C(Nc1ccccc1)c1ccc(Nc2ncc(-c3cn[nH]c3)n3ccnc23)cc1 [Compound 41] | – | > 1000 |
| O=C(c1ccc(Nc2ncc(-c3cn[nH]c3)n3ccnc23)cc1)N1CCOCC1 [Compound 45] | – | > 1000 |
| O=C(NCCN1CCOCC1)c1ccc(Nc2ncc(-c3cn[nH]c3)n3ccnc23)cc1 [Compound 53] | – | > 1000 |
| O=C(NC1CCNC1)c1ccc(Nc2ncc(-c3cn[nH]c3)n3ccnc23)cc1 (centres unmarked) [Compound 55] | – | > 1000 |
| CCNCCNC(=O)c1ccc(Nc2ncc(-c3cn[nH]c3)n3ccnc23)cc1 [Compound 56] | – | > 1000 |
| CN1CCC(NC(=O)c2ccc(Nc3ncc(-c4cn[nH]c4)n4ccnc34)cc2)C1 (centres unmarked) [Compound 64] | – | > 1000 |
| CCN(CC)CCNS(=O)(=O)c1ccc(Nc2ncc(-c3cn[nH]c3)n3ccnc23)cc1 [Compound 69, N-(2-Diethylaminoethyl)-4-[5-(1H-pyrazol-4-yl)imidazo[1,2-a]pyrazin-8-ylamino]benzenesulfonamide] | – | 501 to 1000 |
| CS(=O)(=O)c1ccc(Nc2ncc(-c3cn[nH]c3)n3ccnc23)cc1 [Compound 71] | – | > 1000 |
| CCN(CC)CCNC(=O)c1ccc(Nc2ncc(-c3cn[nH]c3)n3ccnc23)cc1F [Compound 82] | – | > 1000 |
| CCN(CC)CCNC(=O)c1ccc(Nc2ncc(-c3cn[nH]c3)n3ccnc23)c(F)c1 [Compound 83] | – | > 1000 |
| CN(C)c1ccc(CNC(=O)c2ccc(Nc3ncc(-c4cn[nH]c4)n4ccnc34)cc2)cc1 [Compound 89] | – | > 1000 |
| O=C(NCc1ccc(O)cc1)c1ccc(Nc2ncc(-c3cn[nH]c3)n3ccnc23)cc1 [Compound 90, N-(4-Hydroxybenzyl)-4-[5-(1H-pyrazol-4-yl)imidazo[1,2-a]pyrazin-8-ylamino]benzamide] | – | > 1000 |
| O=C(NCCc1cccnc1)c1ccc(Nc2ncc(-c3cn[nH]c3)n3ccnc23)cc1 [Compound 93] | – | > 1000 |
| CCN(CC)CCNS(=O)(=O)c1ccc(Nc2ncc(-c3ccc(C(N)=O)cc3)n3ccnc23)cc1 [Compound 98] | – | > 1000 |
| CN(C)C(CNC(=O)c1ccc(Nc2ncc(-c3cc[nH]c(=O)c3)n3ccnc23)cc1)c1cccnc1 (centres unmarked) [Compound 114] | – | > 1000 |
| CNC(=O)c1ccc(-c2cnc(Nc3ccc(N4CCN(C)CC4)cc3)c3nccn23)cc1 [Compound 116] | – | > 1000 |

| Compound | EC50 (read-out: PBMC EC50) [nM] | EC50 (PBMC) [nM] |
| --- | --- | --- |
| CN1CCN(c2ccc(Nc3ncc(-c4csc(C(N)=O)c4)n4ccnc34)cc2)CC1 [Compound 118] | – | > 1000 |
| Cc1[nH]ncc1-c1cnc(Nc2ccc(N3CCN(C)CC3)cc2)c2nccn12 [Compound 119, (4-(4-Methylpiperazin-1-yl)phenyl)-[5-(5-methyl-1H-pyrazol-4-yl)imidazo[1,2-a]pyrazin-8-yl]amine] | – | > 1000 |
| Cc1cc(C(N)=O)ccc1-c1cnc(Nc2ccc(N3CCN(C)CC3)cc2)c2nccn12 [Compound 120] | – | > 1000 |
| CN1CCN(c2ccc(Nc3ncc(-c4ccc(C(N)=O)c(Cl)c4)n4ccnc34)cc2)CC1 [Compound 124] | – | 501 to 1000 |
| CN1CCN(c2ccc(Nc3ncc(-c4ccnc(F)c4)n4ccnc34)cc2)CC1 [Compound 125, [5-(2-Fluoro-pyridin-4-yl)-imidazo[1,2-a]pyrazin-8-yl]-[4-(4-methyl-piperazin-1-yl)-phenyl]-amine] | – | > 1000 |
| CN1CCN(c2ccc(Nc3ncc(-c4ccc(C(N)=O)s4)n4ccnc34)cc2)CC1 [Compound 127, (4-(4-Methylpiperazin-1-yl)phenyl)-[5-(2-carboxamido-5-thienyl)imidazo[1,2-a]pyrazin-8-yl]amine] | – | > 1000 |
| CN1CCN(c2ccc(Nc3ncc(-c4ccc(C(N)=O)cn4)n4ccnc34)cc2)CC1 [Compound 128] | – | > 1000 |
| CN1CCN(c2ccc(Nc3ncc(-c4ccc(C(N)=O)nc4)n4ccnc34)cc2)CC1 [Compound 129, 5-{8-[4-(4-Methyl-piperazin-1-yl)-phenylamino]-imidazo[1,2-a]pyrazin-5-yl}-pyridine-2-carboxylic acid amide] | – | > 1000 |
| CN1CCN(c2ccc(Nc3ncc(-c4ccc(C(N)=O)cc4)n4ccnc34)cc2Cl)CC1 [Compound 136, 4-{8-[3-Chloro-4-(4-methyl-piperazin-1-yl)-phenylamino]-imidazo[1,2-a]pyrazin-5-yl}-benzamide] | – | 101 to 500 |
| C[C@@H]1CN(C)[C@@H](C)CN1c1ccc(Nc2ncc(-c3ccc(C(N)=O)cc3)n3ccnc23)cc1 [Compound 137] | – | > 1000 |
| CN1CCN(c2ccc(Nc3ncc(-c4cscn4)n4ccnc34)cc2)CC1 [Compound 138] | – | 101 to 500 |
| CN1CCN(c2ccc(Nc3ncc(-c4ccc(C(N)=O)o4)n4ccnc34)cc2)CC1 [Compound 139, 5-{8-[4-(4-Methyl-piperazin-1-yl)-phenylamino]-imidazo[1,2-a]pyrazin-5-yl}-furan-2-carboxylic acid amide] | – | > 1000 |
| CN1CCN(c2ccc(Nc3ncc(-c4cc(F)c(C(N)=O)c(F)c4)n4ccnc34)cc2)CC1 [Compound 140] | – | > 1000 |
| Cn1cnnc1-c1ccc(Nc2ncc(-c3ccc(C(N)=O)cc3)n3ccnc23)cc1 [Compound 141] | – | > 1000 |
| CC(C)N1CCN(c2ccc(Nc3ncc(-c4ccc(C(N)=O)cc4)n4ccnc34)cc2)CC1 [Compound 142] | – | > 1000 |
| CN1CCN(c2ccc(Nc3ncc(-c4ccc(C(N)=O)cc4)n4ccnc34)cc2)CC1 [Compound 143] | – | > 1000 |
| NC(=O)c1ccc(-c2cnc(Nc3ccc(N4CCCCC4)cc3)c3nccn23)cc1 [Compound 144] | – | 1 to 100 |
| CN1CCN(c2ccc(Nc3ncc(-c4cc(C(N)=O)cs4)n4ccnc34)cc2)CC1 [Compound 145, 5-{8-[4-(4-Methyl-piperazin-1-yl)-phenylamino]-imidazo[1,2-a]pyrazin-5-yl}-thiophene-3-carboxylic acid amide] | – | > 1000 |
| NC(=O)c1ccc(-c2cnc(Nc3ccc(OCCN4CCOCC4)cc3)c3nccn23)cc1F [Compound 146] | – | > 1000 |
| CN1CCC(Oc2ccc(Nc3ncc(-c4ccc(C(N)=O)c(F)c4)n4ccnc34)cc2)CC1 [Compound 149] | – | > 1000 |
| c1cn2c(-c3cn[nH]c3)cnc(Nc3ccc(OCCN4CCOCC4)cc3)c2n1 [Compound 150, [4-(2-Morpholin-4-yl-ethoxy)-phenyl]-[5-(1H-pyrazol-4-yl)-imidazo[1,2-a]pyrazin-8-yl]-amine] | – | > 1000 |
| CN1CCN(c2ccc(Nc3ncc(-c4cc(C(N)=O)co4)n4ccnc34)cc2)CC1 [Compound 151] | – | > 1000 |
